Values quoted from earlier work, collected in patent publication US9434994B2, “Methods for prediction of clinical outcome to epidermal growth factor receptor inhibitors by non-small cell lung cancer patients” (The Regents of the University of Colorado, a body corporate, priority 2004, dated 2016).

Tests used:
advanced BAC patients = settings: cited from earlier work
[1] = system: chemotherapy resistant NSCLC patients; settings: single agent; cited from earlier work
NSCLC patients = settings: erlotinib versus placebo, second or third line; cited from earlier work

Row | SMILES | Median Survival (advanced BAC patients) [months] | response rates [1] | Hazard Ratio, survival (NSCLC patients)
1 | CC(=O)O[C@H]1C(=O)[C@@]2(C)[C@H]([C@H](OC(=O)c3ccccc3)[C@]3(O)C[C@H](OC(=O)[C@H](O)[C@@H](NC(=O)c4ccccc4)c4ccccc4)C(C)=C1C3(C)C)[C@]1(OC(C)=O)CO[C@@H]1C[C@@H]2O [paclitaxel] | 12 |  | 
2 | C#Cc1cccc(Nc2ncnc3cc(OCCOC)c(OCCOC)cc23)c1 [erlotinib] |  | about 10% | 0.73
